Data: PubChem BioAssay (NCI)
Where “and” joins values, the source holds several entries; their conditions need not be identical. Equal entries are not always repeated.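 Five concentrations, 48 hours, 96-well plates. Here, GI50 denotes the concentration required for 50% inhibition of growth. At the TGI there is no net growth.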

How the values were obtained:
Experiment in all cases: growth of human tumour cells (NCI), 48 h
786-0 renal = tested on: 786-0 renal
A498 renal = tested on: A498 renal
A549 NSCLC = tested on: A549 NSCLC
ACHN renal = tested on: ACHN renal
BT-549 breast = tested on: BT-549 breast
CAKI-1 renal = tested on: CAKI-1 renal
CCRF-CEM leukemia = tested on: CCRF-CEM leukemia
COLO 205 colon = tested on: COLO 205 colon
DU-145 prostate = tested on: DU-145 prostate
EKVX NSCLC = tested on: EKVX NSCLC
HCC-2998 colon = tested on: HCC-2998 colon
HCT-116 colon = tested on: HCT-116 colon
HCT-15 colon = tested on: HCT-15 colon
HL-60(TB) leukemia = tested on: HL-60(TB) leukemia
HOP-62 NSCLC = tested on: HOP-62 NSCLC
HOP-92 NSCLC = tested on: HOP-92 NSCLC
HS 578T breast = tested on: HS 578T breast
HT29 colon = tested on: HT29 colon
IGROV1 ovarian = tested on: IGROV1 ovarian
K-562 leukemia = tested on: K-562 leukemia
KM12 colon = tested on: KM12 colon
LOX IMVI melanoma = tested on: LOX IMVI melanoma
M14 melanoma = tested on: M14 melanoma
MALME-3M melanoma = tested on: MALME-3M melanoma
MDA-MB-231 breast = tested on: MDA-MB-231 breast
MDA-MB-435 = tested on: MDA-MB-435
MDA-MB-468 breast = tested on: MDA-MB-468 breast
MOLT-4 leukemia = tested on: MOLT-4 leukemia
NCI-H226 lung = tested on: NCI-H226 lung

## CC1=C(CCC=NNC(N)=O)C2=C(C)C3(CC3)[C@@](C)(O)C(=O)C2=C1
786-0 renal
  GI50: 113 nM
  TGI: 428 nM
A498 renal
  GI50: 208 nM
  TGI: 511 nM
A549 NSCLC
  GI50: 122 nM
  TGI: 2160 nM
ACHN renal
  GI50: 68.7 nM
  TGI: 344 nM
BT-549 breast
  GI50: 60.5 nM
  TGI: 212 nM
CAKI-1 renal
  GI50: 133 nM
  TGI: 1110 nM
CCRF-CEM leukemia
  GI50: 2360 nM
  TGI: > 35200 nM
COLO 205 colon
  GI50: 152 nM
  TGI: 314 nM
DU-145 prostate
  GI50: 34.7 nM
  TGI: 1200 nM
EKVX NSCLC
  GI50: 177 nM
  TGI: 526 nM
HCC-2998 colon
  GI50: 94.1 nM
  TGI: 259 nM
HCT-116 colon
  GI50: 142 nM
  TGI: 1400 nM
HCT-15 colon
  GI50: 122 nM
  TGI: 616 nM
HL-60(TB) leukemia
  GI50: 56.8 nM
HOP-62 NSCLC
  GI50: 74.4 nM
  TGI: 802 nM
HOP-92 NSCLC
  GI50: 34.6 nM
  TGI: 180 nM
HS 578T breast
  GI50: 249 nM
  TGI: 1070 nM
HT29 colon
  GI50: 170 nM
  TGI: 740 nM
IGROV1 ovarian
  GI50: 35.6 nM
  TGI: 161 nM
K-562 leukemia
  GI50: 2320 nM
  TGI: > 37900 nM
KM12 colon
  GI50: 506 nM
  TGI: 7670 nM
LOX IMVI melanoma
  GI50: 149 nM
  TGI: 410 nM
M14 melanoma
  GI50: 74.5 nM
  TGI: 253 nM
MALME-3M melanoma
  GI50: 82.2 nM
  TGI: 218 nM
MDA-MB-231 breast
  GI50: 142 nM
  TGI: 435 nM
MDA-MB-435
  GI50: 267 nM
  TGI: 941 nM
MDA-MB-468 breast
  GI50: 187 nM and 31.6 nM
  TGI: 691 nM and 95.3 nM
MOLT-4 leukemia
  GI50: 1180 nM
  TGI: > 41500 nM
NCI-H226 lung
  GI50: 200 nM
